Assay results reported in US7196163B2, “Assays using amyloid precursor proteins with modified β-secretase cleavage sites to monitor β-secretase activity” (Merk & Co., Inc., priority 2001, dated 2007).
Each block holds one substance with its values, some of them ahead of it. Ends that are not written are not given here. coumarin = not defined here

Assays:
2081 antibody = assay: Competition of peptides against biotinylated-SEVNF for binding of the 2081 antibody; design: species or system rabbit
Experimental: To determine the specificity of the 2081 antibody, competition experiments against the biotinylated-SEVNF with the following peptides were performed: SEVNF, SEVN, SEVNFE, SEVNL, and SEVNLD. The experiment was performed similar to the experiment outlined in Example 2 to determine the specificity of antibody 2081.

HEK293T cells = assay: Aβ (IP/Western) and sAPP (Western) produced by APP β-site mutants transiently transfected into HEK293T cells; format: cell-based; conditions: for Aβ level / sAPP level: transfected into 293T cells; for sAPP level: Western blot with LN27; for Aβ production compared with Swedish mutant and wild type APP695: HEK293T cells
Source text: In order to assess the relative suitability of modified β-secretase substrates as substrates that are more reactive than the wild type KMDA cleavage site, plasmid DNA constructs were made expressing 21 different modified β-secretase cleavage site sequences. Table 1, below, summarizes data obtained from most of these modified β-secretase substrates in HEK293T cells. The HEK293T cells were transfected with plasmids containing the genetic sequences for the APP695 polypeptides that contain each of these beta-site substitutions. These plasmids were prepared using the method described above in Example 1. Transient transfection was performed using LipofectaminePlus reagent (Gibco/BRL, Rockville, Md.) according to the instructions of the manufacturer. Media was harvested 48 hrs post transfection. Then Western blot analysis was used to determine levels of sAPP and IP/Western to determine levels of Aβ. Several volumes of conditioned media, 20 μl, 10 μl, 5 μl, 2.5 μl, from the transiently transfected cells were run on 10% SDS-PAGE gels and transferred to PVDF for the measurement of sAPP. Each blot contained a titration of wild type APP transfected conditioned media to normalize for any experimental variations derived from transferring of the gels and western blot detection. The blots were then probed with the antibody LN27 (Zymed, Calif.) to detect the secreted APP, sAPP. Densitometry of each western blot determined the relative amount of total APP expressed in each transfection.
To determine the levels of Aβ, each of the conditioned media was immuno-precipitated and analyzed via the following method. 5 μg of monoclonal antibody G2-10 (a monoclonal antibody that immunologically binds to the carboxyl end of Aβ40, licensed from University of Heidelberg) was added to 1 ml of each conditioned media. The mixture was rotated overnight at 4° C. for 16 hours. 25 μl of a 50% slurry of Protein A sepharose Fast flow beads (Amersham, N.J.) was added and incubation continued, rotating, for 2 hours at 4° C. The beads were pelleted and the supernatant was removed. The beads were washed once with 1 ml PBS. This material was then run on SDS-Tricine gels for analysis. 20 μl of 2×tricine loading buffer was added to the pellet and the mixture was heated at 95° C. for 5 minutes. A pipette tip was used to mix and load the whole mixture (beads included) onto a Bio-Rad 10–20% Tricine gel. The gels were electrophoresed at 125 Volts for 2 hours and 15 minutes and then transferred onto 0.2 μm nitrocellulose backed by a 0.1 μm nitrocellulose membrane for 75 minutes at 100V constant. Blots were then washed in PBS and boiled in PBS for 5 minutes before blocking in PBS plus 0.05% Tween-20 (PBST) with 5% non-fat milk for 60 minutes at room temperature. The milk was washed off twice with PBST and the blots were incubated overnight at 4° C. with G2-10 in PBST (1:1000 dilution). Blots were washed five times for 5 minutes each with large volumes of PBST and the secondary antibody of Goat anti-mouse IgG2b-HRP (Southern Biotechnology Associates, Inc., Birmingham, Ala.) was added at 1:5000 in PBST-5% milk and incubated, rocking, for 1 hour at room temperature. The blots were again washed, five times for 10 minutes each in large volumes of PBST. The substrate Pico ECL (Pierce) was added for 5 minutes and the blots were exposed to Kodak BioMax film. After western analysis was complete, the bands were quantitated by densitometry. For both the sAPP and the Aβ, the GFP control plasmid transfection serves as the background reference level (1×).

Cultured cells = conditions: cultured cells expressing cDNA encoding APP; cited from earlier work
anti-EVEFR antibodies = assay: ORIGEN non-sandwich competition of peptides with binding of ruthenylated anti-EVEFR antibodies to biotinylated EVEFR; design: species or system rabbit; conditions: peptide added over a broad concentration range; FIGS. 3A, 3B
Experimental: Antibody specificity also was evaluated for both lots. An ORIGEN Analyzer (described below) was utilized in a non-sandwich assay to compare the ability of related polypeptides to compete with the binding of ruthenylated anti-EVEFR antibodies to biotinylated EVEFR (SEQ. ID. NO. 58). Certain peptides and conjugated peptides were added as treatments over a broad concentration range, and competitive titrations were made. […] The normal antigen is not acetylated.
Additionally, the specificity of the antibody raised against the EVEFR (SEQ.ID.NO.:58) sequence is tight enough that a conservative change in the epitope presented to the antibody, namely DVEFR(SEQ ID. NO. 60) where the NH-terminus E is conservatively changed to D, the antibody would only recognize the bona fide cleavage product. When measuring products in a cell-based environment, where thousands and perhaps millions of different proteins and epitopes are presented to the antibody, such specificity is required for the absolute measurement of the specific BACE cleavage product. Overall, the polyclonal rabbit antibodies raised against EVEFR (SEQ.ID.NO.:58) are shown to be sufficiently specific for use in detection analyses.
In certain embodiments the antibodies of the present invention are used in an electrochemiluminescence (ECL) detection method known in the art as “Origen” technology (Yang et al., 1994, Bio/Technology 12:193–194; Khorkova et al., 1998. Journal of Neuroscience Methods 82:159–166), and an Origen 1.5 Analyzer (Igen Inc., Gaithersburg, Md.). In embodiments using this ECL-based ORIGEN technology, each purified antibody lot is derivatized to a ruthenium tris-bipyridyl compound. The following provides one example of one of such embodiments.

[1] = tested on: immortalized β-secretase-/-mouse fibroblast cells; assay: Aβ production after transfection into immortalized β-secretase-/- mouse fibroblast cells, with or without human β-secretase; format: cell-based; conditions: no β-secretase co-transfected
Source text: Production of Aβ in β-secretase-/-cells could be rescued by co-transfection of the APP-derived polypeptides comprising modified β-secretase cleavage site sequences with human β-secretase.

BACE 1 = BACE 1 (Homo sapiens, UniProt P56817); assay: Homogeneous end point HPLC assay of BACE 1 cleavage of coumarin substrate; format: biochemical
Chain of BACE 1 (P56817 46-457 limits assumed): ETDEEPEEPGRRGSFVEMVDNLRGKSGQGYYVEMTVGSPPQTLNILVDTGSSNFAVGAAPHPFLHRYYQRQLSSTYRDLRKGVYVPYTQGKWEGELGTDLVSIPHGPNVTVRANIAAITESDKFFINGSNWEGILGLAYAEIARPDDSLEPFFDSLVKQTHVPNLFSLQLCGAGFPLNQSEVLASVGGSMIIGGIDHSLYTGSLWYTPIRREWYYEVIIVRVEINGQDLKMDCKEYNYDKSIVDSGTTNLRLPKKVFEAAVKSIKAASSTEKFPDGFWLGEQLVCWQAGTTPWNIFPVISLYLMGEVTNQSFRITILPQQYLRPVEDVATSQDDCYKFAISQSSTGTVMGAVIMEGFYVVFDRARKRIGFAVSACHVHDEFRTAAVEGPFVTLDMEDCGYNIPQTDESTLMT
Experimental: A typical reaction contains 2 nM enzyme, 1.0 μM of the substrate, and buffer (50 mM NaOAc, pH 4.5, 0.1 mg/ml BSA, 0.2% CHAPS, 15 mM EDTA and 1 mM deferoxamine) in a total reaction volume of 100 μL. The reaction is proceeded for 30 min and the reaction is stopped by the addition of 25 μL of 1 M Tris-HCl, pH 8.0. The resulting reaction mixture was loaded on the HPLC and the product was separated from substrate with 5 min linear gradient. […] The enzyme used in these studies was soluble (transmembrane domain and cytoplasmic extension excluded) human protein produced in a baculovirus expression system. […] All experiments were conducted at room temperature using the standard reaction conditions described above. To determine the IC50 of the compound, four parameters equation is employed for curve fitting.

- competition against biotinylated-SEVNF for binding of the 2081 antibody (2081 antibody): could not compete
Substance: SEVNFE

Substance: NYDV: APP695-derived polypeptide with NYDV at the β-secretase cleavage site
- Aβ level (HEK293T cells): below the limit of detection
- sAPP level (HEK293T cells): below the limit of detection

Substance: NLDA (Swedish): APP Swedish mutant, NLDA at the β-secretase cleavage site
- Aβ produced relative to cells expressing wild-type APP (Cultured cells): 6–8 fold

- competition against biotinylated-SEVNF for binding of the 2081 antibody (2081 antibody): could compete
Substance: SEVNF (SEVNF-OH) [five C-terminal amino acids of the modified sAPPβ fragment]

- competition against biotinylated-SEVNF for binding of the 2081 antibody (2081 antibody): limited amount of competition
- effectiveness of competition relative to SEVNF (2081 antibody; less effective than SEVNF): 100 fold
Substance: SEVNL

- competition against biotinylated-SEVNF for binding of the 2081 antibody (2081 antibody): could not compete
Substance: SEVN

- competition with biotinylated EVEFR for anti-EVEFR binding (anti-EVEFR antibodies): did not compete well
Substance: coumarin-bound deca-peptide: coumarin-bound deca-peptide including the EVEFR sequence; possibly coumarin-CO-REVNFEVEFR (coumarin-REVNFEVEFR; not fully specified; printed as coumarin-CO-REVNFEVEFR; reading uncertain)

Substance: NLDV: APP695-derived polypeptide with NLDV at the β-secretase cleavage site
- Aβ production compared with Swedish mutant and wild type APP695 (HEK293T cells): over three times the level of wild type APP695
- Aβ Level produced by APP β-site mutants in HEK293T cells (HEK293T cells; media 48 hrs post transfection, IP/Western with G2-10, densitometry, GFP control = 1X): 10–15X
- production of Aβ [1]: no production of Aβ was observed

Substance: FFAV: APP695-derived polypeptide with FFAV at the β-secretase cleavage site
- Aβ level (HEK293T cells): below the limit of detection
- sAPP level (HEK293T cells): below the limit of detection

Substance: NFAV: APP695-derived polypeptide with NFAV at the β-secretase cleavage site
- Aβ level (HEK293T cells): below the limit of detection
- sAPP level (HEK293T cells): below the limit of detection

Substance: NFDV: APP695-derived polypeptide with NFDV at the β-secretase cleavage site
- Aβ level (HEK293T cells): below the limit of detection
- sAPP level (HEK293T cells): below the limit of detection

Substance: KYAA: APP695-derived polypeptide with KYAA at the β-secretase cleavage site
- Aβ level (HEK293T cells): below the limit of detection
- sAPP level (HEK293T cells): below the limit of detection

Substance: NFTV: APP695-derived polypeptide with NFTV at the β-secretase cleavage site
- Aβ level (HEK293T cells): below the limit of detection
- sAPP level (HEK293T cells): below the limit of detection

Substance: NYEA: APP695-derived polypeptide with NYEA at the β-secretase cleavage site
- Aβ level (HEK293T cells): below the limit of detection
- sAPP level (HEK293T cells): below the limit of detection

- competition against biotinylated-SEVNF for binding of the 2081 antibody (2081 antibody): could not compete
Substance: SEVNLD

- competition with biotinylated EVEFR for anti-EVEFR binding (anti-EVEFR antibodies): unable to compete for binding
Substance: DAEFR (peptide for use in antibody specificity evaluation)

Substance: NYAA: APP695-derived polypeptide with NYAA at the β-secretase cleavage site
- Aβ level (HEK293T cells): below the limit of detection
- sAPP level (HEK293T cells): below the limit of detection

Substance: KFAA: APP695-derived polypeptide with KFAA at the β-secretase cleavage site
- Aβ level (HEK293T cells): below the limit of detection
- sAPP level (HEK293T cells): below the limit of detection

- substrate processed by BACE 1 (BACE 1; 2 nM enzyme, 1.0 μM substrate, 30 min, pH 4.5, room temperature): less than 10%
- Km (BACE 1; cannot be determined due to limit of solubility of the substrate): > 100 µM
Substance: coumarin-CO-REVNFEVEFR

- competition with biotinylated EVEFR for anti-EVEFR binding (anti-EVEFR antibodies): does not bind well to the antibody
Substance: acetylated-EVEFR (Ac-EVEFR)

- competition with biotinylated EVEFR for anti-EVEFR binding (anti-EVEFR antibodies): competed with biotinylated EVEFR
Substance: EVEFR (peptide simulating cleaved portion from carboxy side of novel sequence at known enzyme cleavage site) [penta-peptide at the amino-terminal end of CTFβ from NFEV or FFEV substrates]

Substance: NFEA: APP695-derived polypeptide with NFEA at the β-secretase cleavage site
- Aβ level (HEK293T cells): below the limit of detection
- sAPP level (HEK293T cells): below the limit of detection
- production of Aβ [1]: no production of Aβ was observed

Substance: NFEV: APP695-derived polypeptide with NFEV at the P2-P1-P1′-P2′ β-secretase cleavage site
- Aβ production compared with Swedish mutant and wild type APP695 (HEK293T cells): high levels of Aβ, comparable to that generated by the APP Swedish mutant
- rate of cleavage relative to similar substrate with wild-type KMDA sequence (HEK293T cells; in an APP backbone, expressed in tissue culture cells): 15–20 times
- production of Aβ [1]: no production of Aβ was observed

- competition with biotinylated EVEFR for anti-EVEFR binding (anti-EVEFR antibodies): slight competitive interference
Substance: VEFR (peptide simulating cleaved portion from carboxy side of novel sequence at known enzyme cleavage site, lacking end amino acid)

- competition with biotinylated EVEFR for anti-EVEFR binding (anti-EVEFR antibodies): somewhat higher level of interference
Substance: DVEFR (peptide for use in antibody specificity evaluation)
